According to paper PMC6268315, “Investigating the Spectrum of Biological Activity of Substituted Quinoline-2-Carboxamides and Their Isosteres ^†” (Molecules, 2012):
Values joined by “and” are separate entries in the source; they are usually repeats but may differ in a detail not shown here. Equal values may be shown once.

What was measured:
[1] = test system: photosynthetic electron transport (PET) in spinach chloroplasts; test: Inhibition of photosynthetic electron transport (PET) in spinach chloroplasts; assay type: biochemical, Spinacia oleracea L.; settings: photoreduction of DCPIP, pH 7.2
Experimental: Chloroplasts were prepared from spinach (Spinacia oleracea L.) according to Masarovicova and Kralova. The inhibition of photosynthetic electron transport (PET) in spinach chloroplasts was determined spectrophotometrically (Genesys 6, Thermo Scientific, USA), using an artificial electron acceptor 2,6-dichlorophenol-indophenol (DCIPP) according to Kralova et al., and the rate of photosynthetic electron transport was monitored as a photoreduction of DCPIP. The measurements were carried out in phosphate buffer (0.02 mol/L, pH 7.2) containing sucrose (0.4 mol/L), MgCl2 (0.005 mol/L) and NaCl (0.015 mol/L). The chlorophyll content was 30 mg/L in these experiments and the samples were irradiated (~100 W/m^2 with 10 cm distance) with a halogen lamp (250 W) using a 4 cm water filter to prevent warming of the samples (suspension temperature 22 °C). The studied compounds were dissolved in DMSO due to their limited water solubility. […] The inhibitory efficiency of the studied compounds was expressed by IC50 values, i.e., by molar concentration of the compounds causing 50% decrease in the oxygen evolution rate relative to the untreated control.

Structure (SMILES)	melting point [°C]	IC50 [1]
O=C(c1ccc2ccccc2n1)N1CCCCC1 [Compound 4, 2-(Piperidin-1-ylcarbonyl)quinoline]	83 to 84	
O=C(NCc1ccccc1)c1ccc2ccccc2n1 [Compound 10, N-Benzylquinoline-2-carboxamide]	123 to 124	59.4 µM
O=C(Nc1ccccc1O)c1ccc2ccccc2n1 [Compound 12a, N-(2-Hydroxyphenyl)quinoline-2-carboxamide]	219 to 220	16.3 µM
O=C(Nc1cccc(O)c1)c1ccc2ccccc2n1 [Compound 12b, N-(3-Hydroxyphenyl)quinoline-2-carboxamide]	154 to 155	
O=C(Nc1ccc(O)cc1)c1ccc2ccccc2n1 [Compound 12c, N-(4-Hydroxyphenyl)quinoline-2-carboxamide]	230 to 231	
COc1ccccc1NC(=O)c1ccc2ccccc2n1 [Compound 13a, N-(2-Methoxyphenyl)quinoline-2-carboxamide]	111 to 112	
COc1cccc(NC(=O)c2ccc3ccccc3n2)c1 [Compound 13b, N-(3-Methoxyphenyl)quinoline-2-carboxamide]	117 to 118	
COc1ccc(NC(=O)c2ccc3ccccc3n2)cc1 [Compound 13c, N-(4-Methoxyphenyl)quinoline-2-carboxamide]	130 to 131	
Cc1ccccc1NC(=O)c1ccc2ccccc2n1 [Compound 14a, N-(2-Methylphenyl)quinoline-2-carboxamide]	100 to 101	143 µM
Cc1ccc(NC(=O)c2ccc3ccccc3n2)cc1 [Compound 14c, N-(4-Methylphenyl)quinoline-2-carboxamide]	107 to 108	
O=C(Nc1ccccc1F)c1ccc2ccccc2n1 [Compound 15a, N-(2-Fluorophenyl)quinoline-2-carboxamide]	116 to 117	98.1 µM
O=C(Nc1cccc(F)c1)c1ccc2ccccc2n1 [Compound 15b, N-(3-Fluorophenyl)quinoline-2-carboxamide]	126 to 127	86.9 µM
O=C(Nc1ccc(F)cc1)c1ccc2ccccc2n1 [Compound 15c, N-(4-Fluorophenyl)quinoline-2-carboxamide]	115 to 116	75.3 µM
O=C(Nc1ccccc1Cl)c1ccc2ccccc2n1 [Compound 16a, N-(2-Chlorophenyl)quinoline-2-carboxamide]	130 to 131	56.3 µM
O=C(Nc1cccc(Cl)c1)c1ccc2ccccc2n1 [Compound 16b, N-(3-Chlorophenyl)quinoline-2-carboxamide]	127 to 128	91.9 µM
O=C(Nc1ccc(Cl)cc1)c1ccc2ccccc2n1 [Compound 16c, N-(4-Chlorophenyl)quinoline-2-carboxamide]	134 to 135	148 µM
O=C(Nc1ccccc1Br)c1ccc2ccccc2n1 [Compound 17a, N-(2-Bromophenyl)quinoline-2-carboxamide]	134 to 135	92.2 µM
O=C(Nc1cccc(Br)c1)c1ccc2ccccc2n1 [Compound 17b, N-(3-Bromophenyl)quinoline-2-carboxamide]	139 to 140	409 µM
O=C(Nc1ccc(Br)cc1)c1ccc2ccccc2n1 [Compound 17c, N-(4-Bromophenyl)quinoline-2-carboxamide]	157 to 158	308 µM
O=C(Nc1ccccc1C(F)(F)F)c1ccc2ccccc2n1 [Compound 18a, N-(2-Trifluoromethylphenyl)quinoline-2-carboxamide]	120 to 121	109 µM
O=C(Nc1cccc(C(F)(F)F)c1)c1ccc2ccccc2n1 [Compound 18b, N-(3-Trifluoromethylphenyl)quinoline-2-carboxamide]	121 to 122	330 µM
O=C(Nc1ccc(C(F)(F)F)cc1)c1ccc2ccccc2n1 [Compound 18c, N-(4-Trifluoromethylphenyl)quinoline-2-carboxamide]	147 to 148	
O=C(Nc1ccccc1[N+](=O)[O-])c1ccc2ccccc2n1 [Compound 19a, N-(2-Nitrophenyl)quinoline-2-carboxamide]	181 to 182	
O=C(Nc1cccc([N+](=O)[O-])c1)c1ccc2ccccc2n1 [Compound 19b, N-(3-Nitrophenyl)quinoline-2-carboxamide]	189 to 190	
O=C(Nc1ccc([N+](=O)[O-])cc1)c1ccc2ccccc2n1 [Compound 19c, N-(4-Nitrophenyl)quinoline-2-carboxamide]	227 to 228	
CC(C)NC(=O)c1ccc2ccccc2c1 [Compound 20, N-Isopropyl-2-naphthamide]	174 to 176	353 µM
CCCCCCCCCCCCNC(=O)c1ccc2ccccc2c1 [Compound 21, N-Dodecyl-2-naphthamide]	102 to 103	845 µM

Structure (SMILES)	melting point [°C]	IC50 [1]
O=C(c1ccc2ccccc2c1)N1CCCCC1 [Compound 23, 1-(2-Naphthoyl)piperidine]	97 to 98	
O=C(NC1CCCC1)c1ccc2ccccc2c1 [Compound 24, N-Cyclopentyl-2-naphthamide]	190 to 191	
O=C(NC1CCCCC1)c1ccc2ccccc2c1 [Compound 25, N-Cyclohexyl-2-naphthamide]	184 to 185	
O=C(NC1CCCCCC1)c1ccc2ccccc2c1 [Compound 26, N-Cycloheptyl-2-naphthamide]	157 to 158	216 µM
O=C(NC1CCCCCCC1)c1ccc2ccccc2c1 [Compound 27, N-Cyclooctyl-2-naphthamide]	145 to 146	688 µM
O=C(Nc1ccccc1)c1ccc2ccccc2c1 [Compound 28, N-Phenyl-2-naphthamide]		20.7 µM
O=C(NCc1ccccc1)c1ccc2ccccc2c1 [Compound 29, N-Benzyl-2-naphthamide]	138 to 139	7.5 µM
O=C(NCCc1ccccc1)c1ccc2ccccc2c1 [Compound 30, N-(2-Phenylethyl)-2-naphthamide]	133 to 134	
O=C(Nc1cccc(O)c1)c1ccc2ccccc2c1 [Compound 31b, N-(3-Hydroxyphenyl)-2-naphthamide]	194	
COc1cccc(NC(=O)c2ccc3ccccc3c2)c1 [Compound 32b, N-(3-Methoxyphenyl)-2-naphthamide]	142	306 µM
Cc1ccccc1NC(=O)c1ccc2ccccc2c1 [Compound 33a, N-(2-Methylphenyl)-2-naphthamide]	146	
Cc1cccc(NC(=O)c2ccc3ccccc3c2)c1 [Compound 33b, N-(3-Methylphenyl)-2-naphthamide]	160	
Cc1ccc(NC(=O)c2ccc3ccccc3c2)cc1 [Compound 33c, N-(4-Methylphenyl)-2-naphthamide]	195	
O=C(Nc1ccccc1F)c1ccc2ccccc2c1 [Compound 34a, N-(2-Fluorophenyl)-2-naphthamide]	122	
O=C(Nc1cccc(F)c1)c1ccc2ccccc2c1 [Compound 34b, N-(3-Fluorophenyl)-2-naphthamide]	167	
O=C(Nc1ccc(F)cc1)c1ccc2ccccc2c1 [Compound 34c, N-(4-Fluorophenyl)-2-naphthamide]	191	
O=C(Nc1ccccc1Cl)c1ccc2ccccc2c1 [Compound 35a, N-(2-Chlorophenyl)-2-naphthamide]	116	
O=C(Nc1cccc(Cl)c1)c1ccc2ccccc2c1 [Compound 35b, N-(3-Chlorophenyl)-2-naphthamide]	180	81 µM
O=C(Nc1ccc(Cl)cc1)c1ccc2ccccc2c1 [Compound 35c, N-(4-Chlorophenyl)-2-naphthamide]	218	
O=C(Nc1ccccc1Br)c1ccc2ccccc2c1 [Compound 36a, N-(2-Bromophenyl)-2-naphthamide]	123	
O=C(Nc1cccc(Br)c1)c1ccc2ccccc2c1 [Compound 36b, N-(3-Bromophenyl)-2-naphthamide]	193	103 µM
O=C(Nc1ccc(Br)cc1)c1ccc2ccccc2c1 [Compound 36c, N-(4-Bromophenyl)-2-naphthamide]	231	
O=C(Nc1cccc(C(F)(F)F)c1)c1ccc2ccccc2c1 [Compound 37b, N-(3-Trifluoromethylphenyl)-2-naphthamide]	150	309 µM
O=C(Nc1ccc(C(F)(F)F)cc1)c1ccc2ccccc2c1 [Compound 37c, N-(4-Trifluoromethylphenyl)-2-naphthamide]	224	
O=C(Nc1ccccc1[N+](=O)[O-])c1ccc2ccccc2c1 [Compound 38a, N-(2-Nitrophenyl)-2-naphthamide]	136	
O=C(Nc1cccc([N+](=O)[O-])c1)c1ccc2ccccc2c1 [Compound 38b, N-(3-Nitrophenyl)-2-naphthamide]	177	633 µM
CN(C)C(=O)Nc1ccc(Cl)c(Cl)c1 [DCMU, 3-(3,4-dichlorophenyl)-1,1-dimethylurea, reference compound]		~1.9 µM and 1.9 µM
